Calls of active or inactive are those of the source. No cut-off for these calls is given here.
Columns and labels:
[1] = biological target: NACHT, LRR and PYD domains-containing protein 3 (Mus musculus, UniProt Q8R4B8); assay: Inhibition of NLRP3 inflammasome activation in LPS/Nigericin stimulated mouse BMDM cells assessed as reduction in cleaved-IL-1 beta level by ELISA method; type: cell-based
[2] = biological target: NACHT, LRR and PYD domains-containing protein 3 (Mus musculus) (UniProt Q8R4B8); assay: Inhibition of NLRP3 inflammasome activation in LPS/Nigericin stimulated mouse BMDM cells assessed as reduction in active caspase-1 level by Western blot analysis; type: cell-based; settings: dose 0.2-2 µM
[3] = biological target: NACHT, LRR and PYD domains-containing protein 3 (Mus musculus) (UniProt Q8R4B8); assay: Inhibition of NLRP3 inflammasome activation in LPS/Nigericin stimulated mouse BMDM cells assessed as reduction in IL-1 beta level by Western blot analysis; type: cell-based; settings: dose 0.2-2 µM
BMDM = assay: Effect on NLRP3 protein expression in mouse BMDM cell lysate at 0.02 to 2 uM by Western blot analysis; type: functional, subcellular; settings: dose 0.02-2 µM
Carbonic anhydrase 2 = Carbonic anhydrase 2 (Homo sapiens, UniProt P00918); assay: Inhibition of Carbonic anhydrase II (unknown origin)

Sequence of NACHT, LRR and PYD domains-containing protein 3 (Q8R4B8 whole entry, the tested form may be a part): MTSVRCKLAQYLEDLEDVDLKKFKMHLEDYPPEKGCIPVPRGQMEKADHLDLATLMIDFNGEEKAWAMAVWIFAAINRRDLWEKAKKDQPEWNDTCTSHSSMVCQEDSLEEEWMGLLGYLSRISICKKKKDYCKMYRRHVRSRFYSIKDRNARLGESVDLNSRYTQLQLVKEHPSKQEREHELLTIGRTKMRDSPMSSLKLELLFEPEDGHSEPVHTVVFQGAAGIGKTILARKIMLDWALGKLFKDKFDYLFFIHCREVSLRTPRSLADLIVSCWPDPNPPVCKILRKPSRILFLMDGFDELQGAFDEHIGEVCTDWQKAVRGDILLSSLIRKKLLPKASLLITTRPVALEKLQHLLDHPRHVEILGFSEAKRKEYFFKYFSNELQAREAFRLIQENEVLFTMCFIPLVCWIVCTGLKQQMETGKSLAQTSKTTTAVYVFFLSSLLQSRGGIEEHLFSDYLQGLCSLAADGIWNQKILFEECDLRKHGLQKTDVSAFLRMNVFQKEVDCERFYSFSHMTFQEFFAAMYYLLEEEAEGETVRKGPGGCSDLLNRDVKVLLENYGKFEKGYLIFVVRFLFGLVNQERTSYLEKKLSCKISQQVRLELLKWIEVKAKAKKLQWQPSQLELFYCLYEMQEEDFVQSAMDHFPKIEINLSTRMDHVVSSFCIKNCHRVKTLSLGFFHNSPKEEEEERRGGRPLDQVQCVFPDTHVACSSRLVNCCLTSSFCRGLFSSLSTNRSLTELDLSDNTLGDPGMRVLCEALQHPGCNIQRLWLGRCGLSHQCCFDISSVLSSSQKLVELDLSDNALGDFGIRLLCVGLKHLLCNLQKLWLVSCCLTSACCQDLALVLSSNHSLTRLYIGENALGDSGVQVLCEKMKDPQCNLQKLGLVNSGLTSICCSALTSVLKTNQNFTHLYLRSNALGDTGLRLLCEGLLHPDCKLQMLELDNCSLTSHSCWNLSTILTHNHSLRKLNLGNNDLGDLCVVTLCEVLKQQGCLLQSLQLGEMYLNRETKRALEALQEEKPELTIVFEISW
Sequence of NACHT, LRR and PYD domains-containing protein 3 (Mus musculus) (Q8R4B8 whole entry, the tested form may be a part): as above

CC(C)c1cc(Cl)cc(C(C)C)c1NC(=O)NS(=O)(=O)c1cc(C(C)(C)O)co1
IC50 [1]: 171 nM

O=C(Nc1c(Br)cc(Cl)cc1Oc1ccccc1)NS(=O)(=O)c1cc(Br)cc2c1OCC2
inhibition [2]: Dose-dependent-effect
inhibition [3]: Dose-dependent-effect
IC50 [1]: 805 nM
Activity (BMDM): inactive

CC(C)(O)c1coc(S(=O)(=O)NC(=O)Nc2c3c(cc4c2CCC4)CCC3)c1
IC50 (Carbonic anhydrase 2): 11000 nM
IC50 [1]: 126 nM

From ChEMBL document CHEMBL6083243, “Design, synthesis and biological evaluation of sulfonylurea derivatives as NLRP3 inflammasome inhibitors” (Bioorg Med Chem Lett, 2024)
